According to US9686984B2, “Macrocyclic picolinamides as fungicides” (DOW AGROSCIENCES LLC, priority 2014, dated 2017):

Key:
Type in all cases: in vivo
Conditions in all cases: 100 ppm, 1 Day Protectant
Glomerella lagenarium = test: Cucumber Anthracnose (COLLLA) disease control
Method: Technical grades of materials were dissolved in acetone, which were then mixed with nine volumes of water containing 110 ppm Triton X-100. The fungicide solutions were applied onto wheat seedlings using an automated booth sprayer to run-off. All sprayed plants were allowed to air dry prior to further handling. All fungicides were evaluated using the aforementioned method for their activity vs. all target diseases, unless stated otherwise. Wheat leaf blotch and brown rust activity were also evaluated using track spray applications, in which case the fungicides were formulated as EC formulations, containing 0.1% Trycol 5941 in the spray solutions. Wheat plants (variety Yuma) were grown from seed in a greenhouse in 50% mineral soil/50% soil-less Metro mix until the first leaf was fully emerged, with 7-10 seedlings per pot. These plants were inoculated with an aqueous spore suspension of Septoria tritici either prior to or after fungicide treatments. After inoculation the plants were kept in 100% relative humidity (one day in a dark dew chamber followed by two to three days in a lighted dew chamber at 20° C.) to permit spores to germinate and infect the leaf. The plants were then transferred to a greenhouse set at 20° C. for disease to develop. When disease symptoms were fully expressed on the 1st leaves of untreated plants, infection levels were assessed on a scale of 0 to 100 percent disease severity. Percent disease control was calculated using the ratio of disease severity on treated plants relative to untreated plants. Example N: Evaluation of Fungicidal Activity: Cucumber Anthracnose (Glomerella lagenarium; Anamorph: Colletotrichum lagenarium; Bayer Code COLLLA) Cucumber seedlings (variety Bush Pickle) were propagated in soil-less Metro mix, with each pot having one plant, and used in the test when 12 to 14 days old. Test plants were inoculated with an aqueous spore suspension of Colletotrichum lagenarium 24 hr after fungicide treatments. […]

Cercospora beticola = test: Leaf Spot of Sugar Beets (CERCBE) disease control
Method: Technical grades of materials were dissolved in acetone, which were then mixed with nine volumes of water containing 110 ppm Triton X-100. The fungicide solutions were applied onto wheat seedlings using an automated booth sprayer to run-off. All sprayed plants were allowed to air dry prior to further handling. All fungicides were evaluated using the aforementioned method for their activity vs. all target diseases, unless stated otherwise. Wheat leaf blotch and brown rust activity were also evaluated using track spray applications, in which case the fungicides were formulated as EC formulations, containing 0.1% Trycol 5941 in the spray solutions. Wheat plants (variety Yuma) were grown from seed in a greenhouse in 50% mineral soil/50% soil-less Metro mix until the first leaf was fully emerged, with 7-10 seedlings per pot. These plants were inoculated with an aqueous spore suspension of Septoria tritici either prior to or after fungicide treatments. After inoculation the plants were kept in 100% relative humidity (one day in a dark dew chamber followed by two to three days in a lighted dew chamber at 20° C.) to permit spores to germinate and infect the leaf. The plants were then transferred to a greenhouse set at 20° C. for disease to develop. When disease symptoms were fully expressed on the 1st leaves of untreated plants, infection levels were assessed on a scale of 0 to 100 percent disease severity. Percent disease control was calculated using the ratio of disease severity on treated plants relative to untreated plants. Example G: Evaluation of Fungicidal Activity: Leaf Spot of Sugar Beets (Cercospora Beticola; Bayer Code CERCBE) Sugar beet plants (variety HH88) were grown in soil-less Metro mix and trimmed regularly to maintain a uniform plant size prior to test. Plants were inoculated with a spore suspension 24 hr after fungicide treatments. Inoculated plants were kept in a dew chamber at 22° C. for 48 hr then incubated in a greenhouse set at 24° C. under a clear plastic hood with bottom ventilation until disease symptoms were fully expressed. […]

Magnaporthe grisea = system: Magnaporthe grisea
[1] = system: Blumeria graminis f. sp. hordei; test: Barley Powdery Mildew (ERYSGH) disease control
Method: Technical grades of materials were dissolved in acetone, which were then mixed with nine volumes of water containing 110 ppm Triton X-100. The fungicide solutions were applied onto wheat seedlings using an automated booth sprayer to run-off. All sprayed plants were allowed to air dry prior to further handling. All fungicides were evaluated using the aforementioned method for their activity vs. all target diseases, unless stated otherwise. Wheat leaf blotch and brown rust activity were also evaluated using track spray applications, in which case the fungicides were formulated as EC formulations, containing 0.1% Trycol 5941 in the spray solutions. Wheat plants (variety Yuma) were grown from seed in a greenhouse in 50% mineral soil/50% soil-less Metro mix until the first leaf was fully emerged, with 7-10 seedlings per pot. These plants were inoculated with an aqueous spore suspension of Septoria tritici either prior to or after fungicide treatments. After inoculation the plants were kept in 100% relative humidity (one day in a dark dew chamber followed by two to three days in a lighted dew chamber at 20° C.) to permit spores to germinate and infect the leaf. The plants were then transferred to a greenhouse set at 20° C. for disease to develop. When disease symptoms were fully expressed on the 1st leaves of untreated plants, infection levels were assessed on a scale of 0 to 100 percent disease severity. Percent disease control was calculated using the ratio of disease severity on treated plants relative to untreated plants. Example J: Evaluation of Fungicidal Activity: Barley Powdery Mildew (Blumeria graminis f. sp. hordei; Synonym: Erysiphe graminis f. sp. hordei; Bayer Code […]) Barley seedlings (variety Harrington) were propagated in soil-less Metro mix, with each pot having 8 to 12 plants, and used in the test when first leaf was fully emerged. Test plants were inoculated by dusting with infected stock plants 24 hr after fungicide treatments. After inoculation the plants were kept in a greenhouse set at 20° C. for disease to develop. […]

For `COc1ccnc(C(=O)N[C@H]2CCO[C@H](Cc3ccccc3)[C@@H](Cc3ccccc3)[C@H](C)OC2=O)c1OC(C)=O` [Compound 3], the “COLLLA disease control, 1DP” value (Glomerella lagenarium) was “A (>70)”, the “CERCBE disease control, 1DP” value (Cercospora beticola) was “A (>70)” and the “PYRIOR disease control, 1DP” value (Magnaporthe grisea) was “A (>70)”. For the same molecule, the “ERYSGH disease control, 1DP” value [1] was “B (≦70)”.

In the case of `CCC[C@H]1OCC[C@H](NC(=O)c2nccc(OC)c2OCOC(C)=O)C(=O)O[C@@H](C)[C@@H]1Cc1ccccc1` [Compound 17], the “COLLLA disease control, 1DP” value (Glomerella lagenarium) is reported as “A (>70)”, the “CERCBE disease control, 1DP” value (Cercospora beticola) is reported as “A (>70)” and the “PYRIOR disease control, 1DP” value (Magnaporthe grisea) is reported as “A (>70)”. The “ERYSGH disease control, 1DP” value [1] was “B (≦70)”.

For `CCCC[C@H]1OCC[C@H](NC(=O)c2nccc(OC)c2OC(C)=O)C(=O)O[C@@H](C)[C@@H]1Cc1ccccc1` [Compound 2], the “COLLLA disease control, 1DP” value (Glomerella lagenarium) was “A (>70)”, the “CERCBE disease control, 1DP” value (Cercospora beticola) was “A (>70)” and the “PYRIOR disease control, 1DP” value (Magnaporthe grisea) was “A (>70)”. For the same molecule, the “ERYSGH disease control, 1DP” value [1] was “B (≦70)”.
